pIC50: −log10 of the molar value.
Target: T1, farnesyl transferase (Homo sapiens, UniProt P49354+P49356)
T1 construct: This enzyme has been partially purified from human THP1 cells; endogenous in cells; host or cells: human THP1 cells (enzyme partially purified from them)
Assay: test for inhibition of farnesyl transferase by scintillation proximity assay (SPA)
Format: biochemical
Conditions: partially purified Ftase from human THP1 cells, 60 minutes at 37° C., BLB and 3H FPP substrates
Procedure: The principle of the SPA (Scintillation Proximity Assay) technology is applied to the assay of the enzymatic activity of farnesyl transferase. According to this method, the farnesyl transferase inhibiting activity is determined by the quantity of [^3 H] farnesyl transferred from [^3 H] farnesyl pyrophosphate, ^3 H FPP, to a biotinylated acceptor substrate.
Method used to detect the active metabolites: test for inhibition of farnesyl transferase by scintillation proximity assay (SPA)
The donor substrate, farnesyl pyrophosphate, is labelled with tritium ^3 H FPP. […] The radiolabelled peptide excites the beads which then emit light which is quantified in a solid-liquid scintillation counter (Topcount®, Packard).
The plate is incubated for 60 minutes at 37° C. and the reaction is stopped by adding 150 μl of stopping reagent containing the SPA beads. The plate is sealed with an adhesive film and left for 30 minutes at room temperature in order to reach equilibrium, and then counted in the Topcount counter. […] The IC50 values of the compounds are calculated by nonlinear regression.

Compound `CC(C)C1CCC2C1(C)CCC1(C)C3=CCC4C(C)(C(=O)O)C(O)C(O)C(O)C4(COP(=O)(O)O)C3CCC21C` (stereo not shown) [Example 1] has a pIC50 of 6.08.
